Laboratory results taken from ChEMBL document CHEMBL1138623, “Synthesis and evaluation of aryl-substituted diarylpropionitriles, selective ligands for estrogen receptor beta, as positron-emission tomographic imaging agents” (Bioorg Med Chem, 2009).

Species: Homo sapiens
Test: Selectivity ratio of relative binding affinity for full-length human estrogen receptor beta to ratio of relative binding affinity for full length human estrogen receptor alpha

| SMILES | RBA |
| --- | --- |
| N#CC(Cc1ccc(O)c(CCF)c1)c1ccc(O)cc1 (stereo unspecified) | 58% |
| N#CC(c1ccc(O)cc1)C(CF)c1ccc(O)cc1 (stereo unspecified) | 21% |
| N#CC(Cc1ccc(O)c(Br)c1)c1ccc(O)cc1 (stereo unspecified) | 108% |
| N#CC(Cc1ccc(O)c(O)c1)c1ccc(O)cc1 (stereo unspecified) | 106% |
| N#CC(Cc1ccc(O)c(CO)c1)c1ccc(O)cc1 (stereo unspecified) | 19% |
| N#CC(Cc1ccc(O)c(F)c1)c1ccc(O)cc1 (stereo unspecified) | 272% |
| CC(c1ccc(O)cc1)C(C#N)c1ccc(O)cc1 (stereo unspecified) | 11% |
| N#CC(Cc1ccc(O)c(I)c1)c1ccc(O)cc1 (stereo unspecified) | 140% |
| N#CC(Cc1ccc(O)c(Cl)c1)c1ccc(O)cc1 (stereo unspecified) | 112% |
| Cc1cc(CC(C#N)c2ccc(O)cc2)ccc1O (stereo unspecified) | 139% |
| N#CC(Cc1ccc(O)c(CCCF)c1)c1ccc(O)cc1 (stereo unspecified) | 45% |
